{"source": "patent US20040022788A1", "about": "“Compositions and methods for promoting or inhibiting angiogenesis” (priority 1998, published 2004)", "key": {"[1]": {"target": "T1, purified bovine F1 ATP synthase (Bos taurus, UniProt P00829+P19483)", "T1 construct": "from tissue; host or cells: bovine heart mitochondria", "experiment": "F1 activity assay (ATPase, coupled NADH oxidation at 340 nm)", "format": "biochemical", "conditions": "angiostatin", "procedure": "FIG. 12 is a bar graph showing the inhibition of purified F1 ATP synthase by angiostatin. Purified F1 ATP synthase activity was measured spectrophotometrically at λ=340 nm by coupling the production of ADP to the oxidation of NADH via the pyruvate kinase and lactate dehydrogenase reaction in which a decrease in the absorbance at λ=340 nm indicates active protein (dark six membered rings). […] Control antibodies had no effect on activity (light circles and squares). Representative data shown, n=3.\nPurification of Bovine Heart F1 ATP Synthase and F1 Activity Assay. Fresh bovine heart mitochondria were obtained as previously described (23) and sonicated to yield sub-mitochondrial particles (24). The F1 portion was separated from membrane-bound FO by chloroform extraction. The aqueous layer was centrifuged at 105,000×g to remove particulate matter before purifying over an S300 gel filtration column. […] ATPase activity was measured spectrophotometrically by monitoring at λ=340 nm by coupling the production of ADP to the oxidation of NADH via pyruvate kinase and lactate dehydrogenase reactions as described in Zheng,& Ramirez, Biochem Biophys Res Commun 261(25):499-503 (1999)."}, "HUVEC [2]": {"test_system": "HUVEC", "experiment": "Direct binding of 125I-labeled plasminogen or angiostatin to endothelial cells, Scatchard analysis", "parameters": "species or system human", "conditions": "125I-labeled ligand, 1 h at 4° C., read-out: apparent dissociation constant (Kd)", "procedure": "FIGS. 1A and 1B. Direct binding assay and Scatchard analysis of plasminogen and angiostatin with endothelial cells. HUVEC were plated at a density of 10,000 cells/well and incubated with increasing concentrations of ^125I-labeled-plasminogen or angiostatin. FIG. 1A. ^125I-labeled plasminogen binding was concentration-dependent and saturable with an apparent dissociation constant ([…]) of 158 nM and 870,000 sites/cell. FIG. 1B. […] Error bars represent standard deviation.\nBinding Assays. Ligands were radioiodinated by using Iodobeads (Pierce), repurified on L-lysine-Sepharose, eluted with 100 mM ε-aminocaproic acid, and dialyzed in PBS, pH 7.0 before use in binding assays. HUVEC were plated at a density of 5,000 or 10,000 cells/well and incubated with increasing concentrations of ^125I-labeled ligand in media containing 1% BSA for 1 h at 4° C. in 96-well plates. Wells were washed, and remaining bound radioactivity was quantified by using an LKB 1272 γ-radiation counter. Nonspecific binding was measured in the presence of excess unlabeled ligand."}, "HUVEC [3]": {"test_system": "HUVEC", "experiment": "HUVEC cell proliferation assay (CyQUANT)", "format": "cell-based, human", "conditions": "1 μM; 24 hrs; n = 3", "procedure": "Cell Proliferation Assay. HUVEC were plated at a density of 5000 cells/well in media depleted of fetal calf serum (FCS) overnight to allow the cells to become quiescent. Fresh media containing 5% FCS, 10 ng/ml basic fibroblast growth factor (bFGF) and 3 ng/ml vascular endothelial growth factor (VEGF) were added to the wells along with angiostatin (1.0 μM), antibody directed against the recombinant human alpha-subunit of ATP synthase (1:10 dil), antibody directed against the recombinant human beta-subunit of ATP synthase (1:10 dil), pre-immune serum (1:10 dil) or cycloheximide ([…]). Cell density was measured after 24 hrs using CyQUANT Cell Proliferation Assay Kit (Molecular Probes) in a fluorometric plate reader (Molecular Devices). The absorbance values used to calculate the percent proliferation of the cells ranged from 1.24 or 1.00 for treated and 2.57 for untreated."}, "HUVEC [4]": {"test_system": "HUVEC", "experiment": "HUVEC proliferation assay (MTS/PMS)", "format": "cell-based, human", "conditions": "for Percent proliferation inhibited, ±SEM, Without Antibody: 24 h", "procedure": "Proliferation Assay. HUVEC were plated at a density of 5,000 cells/well in media depleted of FCS overnight to allow the cells to become quiescent. […] In some experiments antibody directed against the alpha subunit of ATP synthase derived from E. coli was also added at a dilution of 1:10. MTS/PMS [(3-(4,5-dimethylthiazol-2-yl)-5-(3-carboxymethoxyphenyl)-2-(4-sulfophenyl)-2H-tetrazolium inner salt/phenazine methosulfate] solution was added after 24 h, and the absorbance of formazan was quantitated on a Thermomax plate reader at a wavelength of 490 nm according to the manufacturer's specifications (Promega). The absorbance values used to calculate the percent proliferation of the cells ranged from 0.81 for untreated, 0.60 for treated, and 0.47 for baseline quiescent cells.\nAnti-alpha-subunit ATP synthase antibody derived from E. coli was added concomitantly at a dilution of 1:10. MTS/PMS solution was added and absorbance of formazan was quantitated according to the manufacturer's specifications. Results represent three separate experiments performed in duplicate with SEM. Percent recovery represents the ability of the anti-alpha-subunit ATP synthase antibody to block the antiproliferative effect of angiostatin, and thereby restore proliferation to an average of 81% of that obtained with the control cells."}}, "data": [{"substance": "angiostatin", "values": [{"measurement": "inhibition of purified F1 ATPase activity", "setting": "[1]", "result": "completely inhibited"}, {"measurement": "Kd", "setting": "HUVEC [2]", "result": 245, "unit": "nM"}, {"measurement": "Percent Inhibition (+/− S.E.M.) of HUVEC proliferation", "setting": "HUVEC [3]", "result": "57.2 +/− 1.16%"}, {"measurement": "Percent proliferation inhibited, ±SEM, With antibody", "setting": "HUVEC [4]; angiostatin 0.5 μM plus anti-alpha subunit ATP synthase antibody 1:10", "result": "1 ± 0.2", "unit": "%"}, {"measurement": "Percent proliferation inhibited, ±SEM, Without Antibody", "setting": "HUVEC [4]; angiostatin 0.5 μM", "result": "10 ± 1.4", "unit": "%"}, {"measurement": "Percent proliferation inhibited, ±SEM, With antibody", "setting": "HUVEC [4]; angiostatin 0.75 μM plus anti-alpha subunit ATP synthase antibody 1:10", "result": "5 ± 4.1", "unit": "%"}, {"measurement": "Percent proliferation inhibited, ±SEM, Without Antibody", "setting": "HUVEC [4]; angiostatin 0.75 μM", "result": "25 ± 4.2", "unit": "%"}, {"measurement": "Percent proliferation inhibited, ±SEM, With antibody", "setting": "HUVEC [4]; angiostatin 1.0 μM plus anti-alpha subunit ATP synthase antibody 1:10", "result": "6 ± 0.8", "unit": "%"}, {"measurement": "Percent proliferation inhibited, ±SEM, Without Antibody", "setting": "HUVEC [4]; angiostatin 1.0 μM", "result": "23 ± 9.0", "unit": "%"}]}]}
